Assay results taken from US10457710B2, “Antimicrobial peptides, their variants and uses” (priority 2015, dated 2019).
Where a SMILES comes first, the peptide text is derived from it. [ ]: non-standard residue; d: D form.

Tests used:
MRSA strains = assay: MIC, synergistic activity with Ertapenem (4 μg/ml); type: cell-based, S. aureus; details: Ertapenem 4 μg/ml; D-peptide
Experimental: Peptides Chain 104, Chain 105, Chain 201, Chain 308, Chain 310 were tested against antibiotic-sensitive strains of S. aureus RN4220 and methicillin resistant strains of S. aureus COL (MRSA). Chain peptides comprising of either L- or D-form amino acids were tested against these bacteria, and the D-form peptides were found have better activity compared to L-form (Table 6). Synergistic activity of chain peptides along with Ertapenem (4 μg/ml) was tested to know whether it will influence the activity against MRSA strains. […] Chain 310 has the best antibacterial activity against the MRSA strains with a MIC of 0.06 & 0.03 μg/ml along with Ertapenem (4 μg/ml) for both forms of L and D-peptides (Table 6).

[1] = test system: Escherichia coli (ATCC 25922); assay: Radial diffusion assay (RDA); type: cell-based; details: Peptides 50 μg, Gentamycin 5 μg; diameter including the wells
Experimental: (§1) The radial diffusion assay (RDA) was carried out as described by Andersen et al. (2010). Briefly, 30 ml of 1/10 Muller-Hinton broth (MHB) supplemented with 1% agarose and 5.0×10^5 CFU/ml S. aureus or E. coli or K. pneumoniae, P. aeruginosa cells was poured into a single-well omnitray (Nunc) and overlaid with a TSP 96-well plate. […] The peptides were also tested against Fusarium oxysporum and Verticillium dahliae, for which ⅓ potato dextrose agarose was used. To test the synergistic effect of peptides, each peptide was mixed in equimolar concentrations. Mix1 (met1-12), Mix2 (met3, 4 and 5), Mix3 (met 8, 9 and 10), Mix 4 (met11, 12) and Mix5 (8, 9, 10, 11, 12) were prepared and tested against E. coli and S. aureus. Gentamicin and vancomycin were included as positive controls for bacteria and amphotericin B was used as the control for fungi.

[2] = test system: Klebsiella pneumoniae (ATCC 10031); assay: Radial diffusion assay (RDA); type: cell-based; details: Peptides 50 μg, Gentamycin 5 μg; diameter including the wells
Experimental: as §1

[3] = test system: Pseudomonas aeruginosa (ATCC 27853); assay: Radial diffusion assay (RDA); type: cell-based; details: Peptides 50 μg, Gentamycin 5 μg; diameter including the wells
Experimental: as §1

[4] = test system: Staphylococcus aureus (ATCC 25923); assay: Radial diffusion assay (RDA); type: cell-based; details: Peptides 50 μg, Gentamycin 5 μg; diameter including the wells
Experimental: as §1

[5] = test system: Escherichia coli (ATCC 25922); assay: MIC, micro broth dilution assay; type: cell-based
Experimental: (§2) Minimum inhibition concetrations (MICs) were determined against Escherichia coli (ATCC 25922), Staphylococcus aureus (ATCC 25923), Klebsiella pneumoniae (ATCC 10031) and Pseudomonas aeruginosa (ATCC 27853). Also clinical strains of E. coli, K. pneumoniae, E. cloacae, P. aeruginosa, Serratia marcescens, Proteus mirabilis, S. pneumoniae, Acinetobacter baumannii, A. johnsonii and S. aureus were used for MICs assays. Additionally, clinical strains of yeast including Candida albicans, C. glabrata, C. parapsilosis and C. quillermondiae were used. The susceptibility of these microorganisms to Chain peptides were determined using micro broth dilution assay. Colonies of the respective microorganism from Muller Hinton (MH) agar plates incubated overnight were suspended in MH broth media and final concentration of microorganism was adjusted to 5.0×10^5 cfu/ml. An aliquot of 10 μl of each Chain peptide, or gentamicin, tetracycline as reference antibiotics were added in differing concentrations along with 90 μl of bacterial suspension to 96 well polypropylene plates and incubated at 37° C. for 20 to 24 hours. […] Similarly, antifungal MICs were tested in Potato dextrose broth.

[6] = test system: Klebsiella pneumoniae (ATCC 10031); assay: MIC, micro broth dilution assay; type: cell-based
Experimental: as §2

[7] = test system: Pseudomonas aeruginosa (ATCC 27853); assay: MIC, micro broth dilution assay; type: cell-based
Experimental: as §2

[8] = test system: Staphylococcus aureus (ATCC 25923); assay: MIC, micro broth dilution assay; type: cell-based
Experimental: as §2

[9] = test system: Escherichia coli (ATCC 25922), Staphylococcus aureus (ATCC 25923), Klebsiella pneumoniae (ATCC 10031) and Pseudomonas aeruginosa (ATCC 27853); assay: Radial diffusion assay, four ATCC bacterial strains together; type: cell-based; details: Gentamicin 5 μg
Experimental: The radial diffusion assay (RDA) was carried out as described by Andersen et al. (2010). Briefly, 30 ml of 1/10 Muller-Hinton broth (MHB) supplemented with 1% agarose and 5.0×10^5 CFU/ml S. aureus or E. coli or K. pneumoniae, P. aeruginosa cells was poured into a single-well omnitray (Nunc) and overlaid with a TSP 96-well plate. One hundred μg of each synthesized peptide was tested. The peptides were also tested against Fusarium oxysporum and Verticillium dahliae, for which ⅓ potato dextrose agarose was used. To test the synergistic effect of peptides, each peptide was mixed in equimolar concentrations. Mix1 (met1-12), Mix2 (met3, 4 and 5), Mix3 (met 8, 9 and 10), Mix 4 (met11, 12) and Mix5 (8, 9, 10, 11, 12) were prepared and tested against E. coli and S. aureus. Gentamicin and vancomycin were included as positive controls for bacteria and amphotericin B was used as the control for fungi.
By using rational design techniques, we have designed variants of peptides by incorporating or replacing various amino acids in the original peptides. Thus, we have designed and modified Chain 100, Chain 200 and Chain 300 with tryptophan (W), arginine (R) and lysine (K) at various positions to improve antimicrobial activity (FIGS. 4a-c and 5a-c). In some peptides we have also used other amino acids such as Leucine (L), Cysteine (C), Isoleucine (I), Phenylalanine (F) and Alanine (A). […]

Compound | MIC against the MRSA strains along with Ertapenem (MRSA strains) [µg/mL] | Inhibition zone, Escherichia coli [1] [mm] | Inhibition zone, Klebsiella pneumoniae [2] [mm] | Inhibition zone, Pseudomonas aeruginosa [3] [mm] | Inhibition zone, Staphylococcus aureus [4] [mm] | Minimum inhibitory concentration, Escherichia coli (ATCC 25922) [5] [µg/mL] | Minimum inhibitory concentration, Klebsiella pneumoniae (ATCC 10031) [6] [µg/mL] | Minimum inhibitory concentration, Pseudomonas aeruginosa (ATCC 27853) [7] [µg/mL] | Minimum inhibitory concentration, Staphylococcus aureus (ATCC 25923) [8] [µg/mL] | zone of inhibition, four ATCC strains [9]
CC(C)C[C@@H](NC(=O)[C@@H](CCCCN)NC(=O)[C@@H](CCCCN)NC(=O)[C@@H](Cc1ccccc1)NC(=O)[C@@H](CC(C)C)NC(=O)[C@@H](Cc1c[nH]c2ccccc12)NC(=O)[C@@H](CCCNC(=N)N)NC(=O)[C@@H](Cc1c[nH]c2ccccc12)NC(=O)[C@@H](CCCCN)NC(=O)[C@@H](CCCNC(=N)N)NC(=O)[C@H](N)CCCCN)C(=O)O [Chain310D] (H-[dK][dR][dK][dW][dR][dW][dL][dF][dK][dK][dL]-OH) | 0.03 | – | – | – | – | – | – | – | – | –
Gentamicin [reference compound] | – | 22 | 22 | 24 | 24 | 1 | 0.25 | 0.25 | 0.25 | 22-24 mm
